Biological target: human M3 receptor (Homo sapiens (Human), UniProt P20309)
Assay: Muscarinic 3 receptor binding assay (3H-scopolamine displacement)
Settings: not given
Protocol: The muscarinic 3 receptor binding assay was adapted from Perkin Elmer. […] Atropine (Sigma-Aldrich, St. Louis, Mo.) was used as a positive control. […] The reaction mixtures were then added to matrix 96-well GFC filtration microtiter plates that had been previously pretreated with 0.5% polyethylimine (100 μL) for 4 h and filtered. The binding reactions were terminated by filtering through the GFC plates and washing & filtering with ice-cold phosphate saline buffer (5×100 μL). Once the filters were dry, microscint scintillation cocktail (100 μL) was added to each well, allowed to sit for 20 min and the plates analyzed using a TopCount scintillation counter. […] Curve fitting of % inhibition versus concentration using Excell software allowed determination of IC50 values for test compounds.

Chain of human M3 receptor (P20309 whole entry): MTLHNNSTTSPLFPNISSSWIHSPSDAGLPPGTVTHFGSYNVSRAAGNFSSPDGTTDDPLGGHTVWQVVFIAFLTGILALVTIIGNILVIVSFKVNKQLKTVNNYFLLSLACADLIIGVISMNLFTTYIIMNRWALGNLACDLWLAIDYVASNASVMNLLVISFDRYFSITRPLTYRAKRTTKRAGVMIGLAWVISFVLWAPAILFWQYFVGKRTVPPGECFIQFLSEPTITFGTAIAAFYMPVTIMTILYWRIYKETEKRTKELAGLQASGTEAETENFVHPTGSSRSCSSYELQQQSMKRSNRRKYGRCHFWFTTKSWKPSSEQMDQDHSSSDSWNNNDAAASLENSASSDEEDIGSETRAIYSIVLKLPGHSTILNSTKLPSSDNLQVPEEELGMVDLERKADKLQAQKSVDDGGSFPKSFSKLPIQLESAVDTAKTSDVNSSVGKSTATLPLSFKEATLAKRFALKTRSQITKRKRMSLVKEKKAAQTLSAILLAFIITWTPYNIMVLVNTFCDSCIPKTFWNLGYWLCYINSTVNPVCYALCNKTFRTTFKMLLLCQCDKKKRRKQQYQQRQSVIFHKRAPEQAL

SMILES	IC50
O=C(N1CCN(CCOc2ccccc2)CC1)C(O)(c1ccccc1)C1CCCC1 (stereo not drawn) [Compound 9c]	1200 nM
O=C(C(c1ccccc1)C1CCCC1)N1CCN(CCc2ccccc2)CC1 (stereo not drawn) [Compound 7a]	1800 nM
O=C(CN1CCN(C(=O)C(O)(c2ccccc2)C2CCCC2)CC1)c1ccccc1 (stereo not drawn) [Compound 9h]	2700 nM
CC(Cc1ccc2c(c1)OCO2)CN1CCN(C(=O)C(O)(c2ccccc2)C2CCCC2)CC1 (stereo not drawn) [Compound 7i]	4600 nM
COc1ccc(CCN2CCN(C(=O)C(O)(c3ccccc3)C3CCCC3)CC2)cc1 (stereo not drawn) [Compound 9d]	357 nM
O=C(N1CCN(C/C=C/c2ccccc2)CC1)C(O)(c1ccccc1)C1CCCC1 (stereo not drawn) [Compound 7e]	195 nM
O=C(N1CCN(CCCc2ccccc2)CC1)C(O)(c1ccccc1)C1CCCC1 (stereo not drawn) [Compound 7d]	63 nM
O=C(N1CCN(CCc2ccccc2)CC1)C(O)(c1ccccc1)C1CCCC1 (stereo not drawn) [Compound 7f]	4700 nM
O=C(N1CCN(CC(O)c2ccccc2)CC1)C(O)(c1ccccc1)C1CCCC1 (stereo not drawn) [Compound 11]	4300 nM

Same assay, conditions: CHO cell membranes expressing human M3 receptor, 3H-scopolamine

SMILES	IC50
CN1CCN(C(=O)C(c2ccccc2)C2CCCCC2)CC1 (stereo not drawn) [Compound 3a]	5300 nM
O=C(C(c1ccccc1)C1CCCC1)N1CCN(CCCc2ccccc2)CC1 (stereo not drawn) [Compound 7b]	2100 nM
CN1CCN(C(=O)C(c2ccccc2)C2CCCC2)CC1 (stereo not drawn) [Compound 3b]	2100 nM
O=C(C(c1ccccc1)C1CCCC1)N1CCN(C/C=C/c2ccccc2)CC1 (stereo not drawn) [Compound 7c]	599 nM
CCCCCCN1CCN(C(=O)C(c2ccccc2)C2CCCC2)CC1 (stereo not drawn) [Compound 3d]	7900 nM
CN1CCCN(C(=O)C(c2ccccc2)C2CCCC2)CC1 (stereo not drawn) [Compound 3f]	409 nM
O=C(C(c1ccccc1)C1CCCC1)N1CCN(CCC2CCCCC2)CC1 (stereo not drawn) [Compound 9a]	6000 nM

Test system: human living skin equivalents
Assay: not given
Type: cell-based
Settings: not given

SMILES	% Increase in Ki-67 stained positive cells over vehicle
O=C(N1CCN(CCCc2ccccc2)CC1)C(O)(c1ccccc1)C1CCCC1 (stereo not drawn) [Compound 7d]	127%

Test system: not listed separately
Assay: pH measurements of test compound solutions
Type: physicochemical
Settings: not given
Protocol: Equimolar amounts of test compounds were used instead of weight % amounts to ensure a fair (molar-basis) comparison between test compounds. […] The pH of all test solutions was measured @ 22° C. using a Corning pH meter model 430 with a flat surface combo w/RJ electrode. The pH meter was calibrated using standard pH 7 & 12 buffers.

SMILES	Measured pH of solution
O=C(N1CCCNCC1)C(O)(c1ccccc1)C1CCCC1 (stereo not drawn) [Compound 6j]	9.9
O=C(N1CCNCC1)C(O)(c1ccccc1)C1CCCC1 (stereo not drawn) [Compound 6b]	10.0

Same assay, conditions: 79 mM (equimolar) in isopropyl alcohol/water, 22° C.

SMILES	Measured pH of solution
CN1CCNCC1 [Compound 14]	11.0
CN1CCCNCC1 [Compound 15]	11.5

Reference: US10155733B2, “N-aralkylcarbonyl-piperazine and -homopiperazine compounds and personal care compositions comprising the same” (Conopco, Inc., priority 2015, dated 2018)
